Data reported in patent US20040242627A1, “2-Iminoimidazole derivatives (1)” (priority 2001, published 2004).
Counter-ions that a name gives are not always drawn.

Legend:
PAR1 thrombin receptor = molecular target: T1, PAR1 thrombin receptor (Homo sapiens, UniProt P25116); test: Receptor binding assay (high affinity TRAP displacement, platelet membrane); conditions: platelet membrane of healthy adult, [3H] high affinity TRAP, 37° C. 1 hour; read-out: RBA IC50
T1 construct: homogenized with a Dounce homogenizer, and then centrifuged at 40,000 g for 60 minutes to yield platelet membrane; from tissue; host or cells: platelet membrane prepared from the blood of a healthy adult donor
T1 sequence (P25116 22-425): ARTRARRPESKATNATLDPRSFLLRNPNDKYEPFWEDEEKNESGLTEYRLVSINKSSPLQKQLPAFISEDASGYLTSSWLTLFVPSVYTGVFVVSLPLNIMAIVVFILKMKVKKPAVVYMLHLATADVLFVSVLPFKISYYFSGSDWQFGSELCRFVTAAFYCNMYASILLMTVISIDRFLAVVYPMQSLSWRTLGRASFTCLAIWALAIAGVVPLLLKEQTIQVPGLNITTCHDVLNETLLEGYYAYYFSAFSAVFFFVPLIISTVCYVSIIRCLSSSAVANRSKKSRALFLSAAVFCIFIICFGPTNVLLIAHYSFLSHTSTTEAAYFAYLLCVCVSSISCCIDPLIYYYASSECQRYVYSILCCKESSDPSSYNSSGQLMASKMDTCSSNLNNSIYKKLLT
Method: Blood was sampled from a healthy adult who had taken no drugs for one week, and 3.8% citric acid (a ratio of 1:9 with respect to the blood) was added as an anticoagulant. The mixture was then centrifuged at 100 g for 10 minutes at room temperature to yield platelet rich plasma (PRP). The platelet precipitate obtained by centrifuging the PRP was homogenized with a Dounce homogenizer, and then centrifuged at 40,000 g for 60 minutes to yield platelet membrane. The platelet membrane was suspended in a solution prepared by adding DMSO (dimethyl sulfoxide) at 1% concentration to Buffer 1: a 50 mM Tris-HCl buffer containing 10 mM MgCl2 and 1 mM EGTA (ethylene glycol tetraacetic acid), and the suspension was stored at −80° C. Bovine albumin and DMSO were added to Buffer 1 at 0.1% and 20%, respectively, to make a preparation solution for the test compound. […] Next, 30 μl of liquid scintillator was added for measurement of the radioactivity of the plate using a Top Counter (Packard), the value of the radioactivity in the presence of the test compound minus non-specific binding portion was divided by the specific binding value (the value of the binding in the absence of the compound minus the non-specific binding portion) to determine the binding ratio, from which the IC50 value was calculated. […]

[1] = test system: platelet rich plasma (PRP), thrombin-induced platelet aggregation; test: Inhibitory effects on platelet aggregation using platelet rich plasma (thrombin-induced); type: cell-based; conditions: Homo sapiens, PRP of healthy adult, thrombin 0.5-1.5 units/ml, area under aggregation curve, read-out: Thr IC50
Method: [Inhibitory Effects on Platelet Aggregation using Platelet Rich Plasma]
Blood was sampled from a healthy adult who had taken no drugs for one week, and 3.8% citric acid (a ratio of 1:9 with respect to the blood) was added as an anticoagulant. The mixture was then centrifuged at 100 g for 10 minutes at room temperature to yield platelet rich plasma (PRP). The PRP-removed blood was further centrifuged at 1000 g for 10 minutes to yield platelet poor plasma (PPP). The number of platelet was counted using a multi-parameter automatic hemocyte counter (K4500, Sysmex), and the PRP was diluted to approximately 300,000/μl with the PPP. The platelet aggregation activity was determined in the following manner using an Aggregometer (MC Medical). […] After addition of thrombin, the aggregation reaction was examined for 6 minutes and the areas under the aggregation curves were compared to determine the inhibition ratio, from which the IC50 value was calculated.

`CC(C)(C)c1cc(C(=O)Cn2c(=N)n(Cc3ccc(N)cc3)c3ccccc32)cc(C(C)(C)C)c1O` [Example 40, 2-[3-(4-amino-benzyl)-2-imino-2,3-di-hydro-benzimida-zol-1-yl]-1-(3,5-di-tert-bu-tyl-4-hydroxy-phenyl)-ethanone dihydrochloride] showed an IC50 (PAR1 thrombin receptor) of 260 nM and an IC50 [1] of 1300 nM.
